Source: publication PMC7055688 (Journal of fluorine chemistry, 2019)
In brackets after ≈: the same amount, converted by molar mass.

How the values were obtained:
[1] = solubility in sodium phosphate buffer; assay type: physicochemical; conditions: pH 7.4, aqueous buffer, kinetic from dmso stock
human sEH = target: T1, human sEH (Homo sapiens, UniProt P34913); test: kinetic fluorescent assay of sEH inhibitory potency; assay type: biochemical; conditions: for fold increase of activity compared to 3a: ratio of IC50 of 3a to that of the compound; for fold drop of activity compared to 3a: ratio of IC50 to that of 3a
T1 sequence (P34913 1-555): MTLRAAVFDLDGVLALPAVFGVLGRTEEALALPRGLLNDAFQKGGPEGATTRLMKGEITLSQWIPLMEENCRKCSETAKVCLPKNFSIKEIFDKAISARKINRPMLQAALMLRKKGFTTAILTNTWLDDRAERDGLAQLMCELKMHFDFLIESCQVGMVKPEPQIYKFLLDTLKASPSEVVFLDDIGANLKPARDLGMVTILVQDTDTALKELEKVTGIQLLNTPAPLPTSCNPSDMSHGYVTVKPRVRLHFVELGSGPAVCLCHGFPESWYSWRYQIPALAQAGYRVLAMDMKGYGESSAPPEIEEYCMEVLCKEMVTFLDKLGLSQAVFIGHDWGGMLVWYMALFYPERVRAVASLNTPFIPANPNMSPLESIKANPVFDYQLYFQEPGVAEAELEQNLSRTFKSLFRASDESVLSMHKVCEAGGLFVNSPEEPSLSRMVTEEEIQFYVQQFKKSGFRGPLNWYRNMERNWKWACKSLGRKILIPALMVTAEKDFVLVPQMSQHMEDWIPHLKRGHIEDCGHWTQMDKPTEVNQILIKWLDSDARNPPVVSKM

[2] = experimental LogP by HPLC-MS; assay type: physicochemical

| solubility [1] [µM] | fold increase of activity compared to 3a (human sEH) [fold] | fold more active than 2-hydroxy substituted analog (human sEH) [fold] | fold more active than unsubstituted 1-(adamantan-1-yl)-3-phenyl urea (human sEH) [fold] | chromatographic logP [2] | fold drop of activity compared to 3a (human sEH) [fold] | SMILES |
| --- | --- | --- | --- | --- | --- | --- |
| 80 to 90 (≈ 23.1 to 26 µg/mL) | 3.7 |  |  |  |  | O=C(Nc1ccccc1F)NC1C2CC3CC(C2)CC1C3 (stereo not shown) [3i, 1-(Adamantan-2-yl)-3-(2-fluorophenyl) urea] |
| 50 to 60 (≈ 15.1 to 18.1 µg/mL) | 2.5 |  |  |  |  | CC12CC3CC(C1)CC(NC(=O)Nc1ccccc1F)(C3)C2 [3f, 1-[3-methyl(Adamantan-1-yl)]-3-(2-fluorophenyl) urea] |
| 70 to 80 (≈ 20.2 to 23.1 µg/mL) |  | 37 | 4 |  |  | O=C(Nc1ccccc1F)NC12CC3CC(CC(C3)C1)C2 [3a, 1-(Adamantan-1-yl)-3-(2-fluorophenyl) urea] |
| 50 to 60 (≈ 17.2 to 20.7 µg/mL) |  |  |  | 5.8 | 170 | CCC(CC12CC3CC(CC(C3)C1)C2)NC(=O)Nc1ccccc1F (stereo not shown) [3d, 1-[1-(Adamantan-1-yl)butane-2-yl]-3-(2-fluorophenyl) urea] |
|  |  |  |  | 6.55 |  | CCCC(CNC(=O)Nc1ccccc1F)C1C2CC3CC(C2)CC1C3 (stereo not shown) [3j, 1-[2-(Adamantan-2-yl)pentane-1-yl]-3-(2-fluorophenyl) urea] |
| 80 to 90 (≈ 29.2 to 32.8 µg/mL) |  |  |  |  |  | O=C(Nc1ccc(C23CC4CC(CC(C4)C2)C3)cc1)Nc1ccccc1F [3e, 1-[4-(Adamantan-1-yl)phenyl]-3-(2-fluorophenyl) urea] |
| 60 to 70 (≈ 18.1 to 21.2 µg/mL) |  |  |  | 4.4 |  | O=C(NCC12CC3CC(CC(C3)C1)C2)Nc1ccccc1F [3b, 1-[(Adamantan-1-yl)methyl]-3-(2-fluorophenyl) urea] |
| 50 to 60 (≈ 15.8 to 19 µg/mL) |  |  |  | 4.75 | 15 | CC(NC(=O)Nc1ccccc1F)C12CC3CC(CC(C3)C1)C2 (stereo not shown) [3c, 1-[1-(Adamantan-1-yl)ethyl]-3-(2-fluorophenyl) urea] |
| 70 to 80 (≈ 23.1 to 26.4 µg/mL) |  |  |  |  | 25 | CC12CC3(C)CC(C)(C1)CC(NC(=O)Nc1ccccc1F)(C2)C3 [3h, 1-[3,5,7-trimethyl(Adamantan-1-yl)]-3-(2-fluorophenyl) urea] |
